This note sets out measurements from US9409882B2, “Pyridine derivatives” (Hoffmann-La Roche Inc., priority 2012, dated 2016).

One assay deals with human Cathepsin S (Homo sapiens (Human), UniProt P25774). The experiment in a line: Cathepsin enzyme inhibition assay (fluorogenic peptide substrate), human Cat S. The format is biochemical. The note with it: human Cat S 1 nM, substrate Z-Val-Val-Arg-AMC 20 μM, pH 6.5. As for the experimental part: (§1) Cathepsin Enzyme Inhibition Assay
(§2) Enzyme activity is measured by observing the increase in fluorescence intensity caused by cleavage of a peptide substrate containing a fluorophore whose emission is quenched in the intact peptide.
(§3) Assay buffer: 100 mM potassium phosphate pH 6.5, EDTA-Na 5 mM, Triton X-100 0.001%, DTT 5 mM.
(§4) Enzymes (all at 1 nM): human and mouse Cathepsin S, Cat K, Cat B, Cat L.
(§5) Substrate (20 μM): Z-Val-Val-Arg-AMC, except for Cat K which uses Z-Leu-Arg-AMC (both from Bachem).
(§6) AMC=7-Amino-4-Methyl-Coumarin.
(§7) Excitation 360 nm, Emission 465 nm.
(§8) Enzyme is added to the substance dilutions in 96-well microtitre plates and the reaction is started with substrate. […] IC50 are calculated by standard methods.
(§9) Inhibition of human Cat S, mouse Cat S, human Cat K, human Cat B, human Cat L and mouse Cat L have been measured separately.

In a further assay the target is human Cat L (Homo sapiens (Human), UniProt P07711). The experiment in a line: Cathepsin enzyme inhibition assay (fluorogenic peptide substrate), human Cat L. Type of assay: biochemical. Conditions: human Cat L 1 nM, substrate Z-Val-Val-Arg-AMC 20 μM, pH 6.5. As for the experimental part: as §1, §2, §3, §4, §5, §6, §7, §8, §9

Molecules are shown by their SMILES.

Sequence of human Cat L (P07711 114-333): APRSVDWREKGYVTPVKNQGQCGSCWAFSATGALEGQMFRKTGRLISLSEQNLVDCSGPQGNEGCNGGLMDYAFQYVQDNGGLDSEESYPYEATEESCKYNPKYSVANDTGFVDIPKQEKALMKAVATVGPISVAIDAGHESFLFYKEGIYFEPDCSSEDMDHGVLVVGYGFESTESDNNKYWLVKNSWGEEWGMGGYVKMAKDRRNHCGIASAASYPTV
Sequence of human Cathepsin S (P25774 115-331): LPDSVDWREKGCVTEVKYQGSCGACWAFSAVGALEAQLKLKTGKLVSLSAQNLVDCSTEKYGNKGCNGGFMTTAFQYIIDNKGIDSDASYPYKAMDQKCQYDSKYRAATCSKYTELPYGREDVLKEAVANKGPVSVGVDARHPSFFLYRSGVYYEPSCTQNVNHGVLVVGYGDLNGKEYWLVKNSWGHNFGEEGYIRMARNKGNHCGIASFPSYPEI

Usually IC50 stands for the concentration needed to halve the response being measured. As for `COc1ccc(S(=O)(=O)[C@@H]2C[C@@H](C(=O)NC3(C#N)CC3)N(C(=O)C3(c4ccc(Cl)cn4)CC3)C2)c(Cl)c1` [Example 1, (2S,4R)-4-(2-Chloro-4-methoxy-benzenesulfonyl)-1-[1-(5-chloro-pyridin-2-yl)-cyclopropanecarbonyl]-pyrrolidine-2-carboxylic acid (1-cyano-cyclopropyl)-amide], the results for the IC50 on human Cathepsin S and against human Cat L were 0.606 nM and 410 nM, respectively. For `N#CC1(NC(=O)[C@@H]2C[C@@H](S(=O)(=O)c3ccccc3Cl)CN2C(=O)C2(c3ccc(Cl)cn3)CC2)CC1` [Example 2, (2S,4R)-4-(2-Chloro-benzenesulfonyl)-1-[1-(5-chloro-pyridin-2-yl)-cyclopropanecarbonyl]-pyrrolidine-2-carboxylic acid (1-cyano-cyclopropyl)-amide], in that order: 0.492 nM and 340 nM.

Regarding `N#CC1(NC(=O)[C@@H]2C[C@@H](S(=O)(=O)c3ccc(OCC(F)(F)F)cc3Cl)CN2C(=O)C2(c3ccc(Cl)cn3)CC2)CC1` [Example 3, (2S,4R)-1-[1-(5-Chloro-pyridin-2-yl)-cyclopropanecarbonyl]-4-[2-chloro-4-(2,2,2-trifluoro-ethoxy)-benzenesulfonyl]-pyrrolidine-2-carboxylic acid (1-cyano-cyclopropyl)-amide], the values for the IC50 against human Cathepsin S and against human Cat L were 0.825 nM and 429 nM, respectively.

For `COc1ccc(S(=O)(=O)[C@@H]2C[C@@H](C(=O)NC3(C#N)CC3)N(C(=O)C3(c4ncc(Cl)cc4F)CC3)C2)c(Cl)c1` [Example 4, (2S,4R)-1-[1-(5-Chloro-3-fluoro-pyridin-2-yl)-cyclopropanecarbonyl]-4-(2-chloro-4-methoxy-benzenesulfonyl)-pyrrolidine-2-carboxylic acid (1-cyano-cyclopropyl)-amide], the IC50 worked out at 0.393 nM against human Cathepsin S and 11.9 nM at human Cat L.

`N#CC1(NC(=O)[C@@H]2C[C@@H](S(=O)(=O)c3ccccc3Cl)CN2C(=O)C2(c3ncc(Cl)cc3F)CC2)CC1` [Example 5, (2S,4R)-4-(2-Chloro-benzenesulfonyl)-1-[1-(5-chloro-3-fluoro-pyridin-2-yl)-cyclopropanecarbonyl]-pyrrolidine-2-carboxylic acid (1-cyano-cyclopropyl)-amide]: the IC50 was determined as 0.398 nM on human Cathepsin S and 12.9 nM at human Cat L. As for `N#CC1(NC(=O)[C@@H]2C[C@@H](S(=O)(=O)c3ccc(OCC(F)(F)F)cc3Cl)CN2C(=O)C2(c3ncc(Cl)cc3F)CC2)CC1` [Example 6, (2S,4R)-1-[1-(5-Chloro-3-fluoro-pyridin-2-yl)-cyclopropanecarbonyl]-4-[2-chloro-4-(2,2,2-trifluoro-ethoxy)-benzenesulfonyl]-pyrrolidine-2-carboxylic acid (1-cyano-cyclopropyl)-amide], the IC50 against human Cathepsin S amounted to 0.675 nM; on human Cat L, 44.5 nM. On to `COc1ccc(S(=O)(=O)[C@@H]2C[C@@H](C(=O)NC3(C#N)CC3)N(C(=O)C3(c4ncc(Br)cc4F)CC3)C2)c(Cl)c1` [Example 7, (2S,4R)-1-[1-(5-Bromo-3-fluoro-pyridin-2-yl)-cyclopropanecarbonyl]-4-(2-chloro-4-methoxy-benzenesulfonyl)-pyrrolidine-2-carboxylic acid (1-cyano-cyclopropyl)-amide], for which the IC50 was 0.734 nM at human Cathepsin S and 25.5 nM against human Cat L.

For the compound `N#CC1(NC(=O)[C@@H]2C[C@@H](S(=O)(=O)c3ccccc3Cl)CN2C(=O)C2(c3ncc(Br)cc3F)CC2)CC1` [Example 8, (2S,4R)-1-[1-(5-Bromo-3-fluoro-pyridin-2-yl)-cyclopropanecarbonyl]-4-(2-chloro-benzenesulfonyl)-pyrrolidine-2-carboxylic acid (1-cyano-cyclopropyl)-amide], the IC50 against human Cathepsin S was determined as 0.438 nM; against human Cat L it was 19.2 nM.

Turning to `N#CC1(NC(=O)[C@@H]2C[C@@H](Sc3cccc(-c4ccc(F)cc4)c3)CN2C(=O)C2(c3ncc(Cl)cc3F)CC2)CC1` [Example 9, (2S,4R)-1-[1-(5-Chloro-3-fluoro-pyridin-2-yl)-cyclopropanecarbonyl]-4-(4′-fluorobiphenyl-3-ylsulfanyl)-pyrrolidine-2-carboxylic acid (1-cyano-cyclopropyl)-amide], the IC50 at human Cathepsin S is 11.8 nM; at human Cat L, 416 nM. `N#CC1(NC(=O)[C@@H]2C[C@@H](Sc3ncccc3Cl)CN2C(=O)C2(c3ncc(Cl)cc3F)CC2)CC1` [Example 10, (2S,4R)-1-[1-(5-Chloro-3-fluoro-pyridin-2-yl)-cyclopropanecarbonyl]-4-(3-chloro-pyridin-2-ylsulfanyl)-pyrrolidine-2-carboxylic acid (1-cyano-cyclopropyl)-amide] showed an IC50 against human Cathepsin S of 964 nM. Regarding `N#CC1(NC(=O)[C@@H]2C[C@@H](S(=O)(=O)c3ccc(F)cc3Cl)CN2C(=O)C2(c3ncc(Cl)cc3F)CC2)CC1` [Example 11, (2S,4R)-1-(1-(5-chloro-3-fluoropyridin-2-yl)cyclopropanecarbonyl)-4-(2-chloro-4-fluorophenylsulfonyl)-N-(1-cyanocyclopropyl)pyrrolidine-2-carboxamide], the IC50 was 0.602 nM against human Cathepsin S and 89.8 nM at human Cat L.

As to `N#CC1(NC(=O)[C@@H]2C[C@@H](Sc3ccccn3)CN2C(=O)C2(c3ncc(Cl)cc3F)CC2)CC1` [Example 12, (2S,4R)-1-[1-(5-Chloro-3-fluoro-pyridin-2-yl)-cyclopropanecarbonyl]-4-(pyridin-2-ylsulfanyl)-pyrrolidine-2-carboxylic acid (1-cyano-cyclopropyl)-amide], the IC50 against human Cathepsin S was determined as 594 nM; against human Cat L it was 8230 nM. `N#CC1(NC(=O)[C@@H]2C[C@@H](S(=O)(=O)c3cccc(-c4ccc(F)cc4)c3)CN2C(=O)C2(c3ncc(Cl)cc3F)CC2)CC1` [Example 13, (2S,4R)-1-[1-(5-Chloro-3-fluoro-pyridin-2-yl)-cyclopropanecarbonyl]-4-(4′-fluorobiphenyl-3-sulfonyl)-pyrrolidine-2-carboxylic acid (1-cyano-cyclopropyl)-amide]: 247 nM corresponded to half-maximal inhibition at human Cat L (IC50). Same read-out and setting: in the case of `N#CC1(NC(=O)[C@@H]2C[C@@H](S(=O)(=O)c3ncccc3Cl)CN2C(=O)C2(c3ncc(Cl)cc3F)CC2)CC1` [Example 14, (2S,4R)-1-[1-(5-Chloro-3-fluoro-pyridin-2-yl)-cyclopropanecarbonyl]-4-(3-chloropyridine-2-sulfonyl)-pyrrolidine-2-carboxylic acid (1-cyano-cyclopropyl)-amide] it was 2120 nM. For `N#CC1(NC(=O)[C@@H]2C[C@H](S(=O)(=O)c3ccc(F)cc3Cl)CN2C(=O)C2(c3ncc(Cl)cc3F)CC2)CC1` [Example 15, (2S,4S)-4-(2-Chloro-4-fluoro-benzenesulfonyl)-1-[1-(5-chloro-3-fluoro-pyridin-2-yl)-cyclopropanecarbonyl]-pyrrolidine-2-carboxylic acid (1-cyano-cyclopropyl)-amide], the IC50 on human Cathepsin S is 11.1 nM; against human Cat L, 1680 nM. The like results for `N#CC1(NC(=O)[C@@H]2C[C@@H](Sc3ccc(Cl)cn3)CN2C(=O)C2(c3ncc(Cl)cc3F)CC2)CC1` [Example 17, (2S,4R)-1-[1-(5-Chloro-3-fluoro-pyridin-2-yl)-cyclopropanecarbonyl]-4-(5-chloro-pyridin-2-ylsulfanyl)-pyrrolidine-2-carboxylic acid (1-cyano-cyclopropyl)-amide] were, in that order, 264 nM and 5650 nM. The like results for `N#CC1(NC(=O)[C@@H]2C[C@@H](S(=O)(=O)c3ccccn3)CN2C(=O)C2(c3ncc(Cl)cc3F)CC2)CC1` [Example 18, (2S,4R)-1-[1-(5-Chloro-3-fluoro-pyridin-2-yl)-cyclopropanecarbonyl]-4-(pyridine-2-sulfonyl)-pyrrolidine-2-carboxylic acid (1-cyano-cyclopropyl)-amide] were, in that order, 4.24 nM and 3430 nM.

For the compound `Cc1cccc(S[C@@H]2C[C@@H](C(=O)NC3(C#N)CC3)N(C(=O)C3(c4ncc(Cl)cc4F)CC3)C2)n1` [Example 19, (2S,4R)-1-[1-(5-Chloro-3-fluoro-pyridin-2-yl)-cyclopropanecarbonyl]-4-(6-methyl-pyridin-2-ylsulfanyl)-pyrrolidine-2-carboxylic acid (1-cyano-cyclopropyl)-amide], the IC50 at human Cat L stood at 4610 nM.

Take `N#CC1(NC(=O)[C@@H]2C[C@@H](Sc3cc(C(F)(F)F)ccc3Cl)CN2C(=O)C2(c3ncc(Cl)cc3F)CC2)CC1` [Example 26, (2S,4R)-1-[1-(5-Chloro-3-fluoro-pyridin-2-yl)-cyclopropanecarbonyl]-4-(2-chloro-5-trifluoromethyl-phenylsulfanyl)-pyrrolidine-2-carboxylic acid (1-cyano-cyclopropyl)-amide]: half-maximal inhibition against human Cat L (IC50) required 52.4 nM. At human Cathepsin S, `Cn1cc(-c2ccc(S(=O)(=O)[C@@H]3C[C@@H](C(=O)NC4(C#N)CC4)N(C(=O)C4(c5ncc(Cl)cc5Cl)CC4)C3)c(Cl)c2)cn1` [Example 40, (2S,4R)-4-[2-Chloro-4-(1-methyl-1H-pyrazol-4-yl)-benzenesulfonyl]-1-[1-(3,5-dichloro-pyridin-2-yl)-cyclopropanecarbonyl]-pyrrolidine-2-carboxylic acid (1-cyano-cyclopropyl)-amide] displayed an IC50 of 0.703 nM.
